Experimental data as given in US10179927B2, “Electrochemical detection of microorganisms” (priority 2014, dated 2019).
Where two headings read alike, the source gives them in different places. Marks after values point to notes of the source that are not given here.

Tests used:
E. coli [1] = assay: Current from unconjugated redox active reporter moieties mediating electron transfer between E. coli and the electrode in ECs; assay type: cell-based, Escherichia coli; conditions: 5×10^5 CFU mL^−1 of E. coli; for Maximum recorded current in ECs: unconjugated reporter 50 μM
Experimental: (§1) Resorufin (TCI-Europe), 2-hydroxy-1,4-naphthoquinone (2H14NQ) (TCI-Europe), 5-hydroxy-1,4-naphthoquinone (5H14NQ) (TCI-Europe) and 5,8-dihydroxy-1,4-naphthoquinone (58H14NQ) (Sigma-Aldrich) were obtained commercially and added to M9 medium in their unconjugated form to achieve a working concentration of 50 μM. Resorufin glycoconjugates (resorufin-β-d-galactopyranoside and resorufin-β-d-glucopyranoside) were obtained commercially (Sigma-Aldrich), whereas 2-hydroxy-1,4-naphthoquinone-β-d-galactopyranoside (2H14NQGal) and 2-hydroxy-1,4-naphthoquinone-β-d-glucopyranoside (2H14NQG1u) were specifically synthesized by Sussex Research Ltd. All reporters were added to a final concentration of 50 μM. Stock concentrations (1.0×10^−3 M) of 2H14NQ and 5H14NQ were prepared by first dissolving in 10 μL of 2 M NaOH and then making up to volume in Type II water (Veolia) whereas 58H14NQ (1.0×10^−3 M) was prepared in 1:1 DMSO:Type II water aliquots. Both stock solutions were stored at −20° C. until needed. Conjugated reporters were maintained as 1 mM stock solutions in Type II water and stored at 5° C.
(§2) Escherichia coli strain BL21 was selected to represent a FIB of human origin that contains the uidA and lacZ genes, i.e. a FC, whereas Aeromonas hydrophila (DSM 6173) is an environmental organism that has the lacZ gene but which is not considered a coliform. All organisms were cultured aerobically for 20 h. E. coli was grown in Luria Bertani (Lennox) medium at 37° C., and A. hydrophile at 30° C. in tryptone soy broth (TSB) in a shaking incubator.
(§3) The resulting overnight cultures were diluted in sterile modified M9 medium (Na2HPO4.7H2O (126 mM); KH2PO4 (110 mM); NH4Cl (93 mM); NaCl (42 mM); 1 mL/L vitamin stock solution; tryptone 12.5 g/L; HEPES: 6 g/L; and macro nutrients). The carbon source was either D-galacturonic acid or D-glucuronic acid (3.75 g/L) to achieve a final inoculum density in the range of 1.0×10^0, 5.0×10^0, 5.0×10^1, 5.0×10^2, 5.0×10^3, 5.0×10^4, and 5.0×10^5 CFU mL^−1 in both electrochemical system and the bioelectrochemical system.
Conical ECs with a working volume of 10 mL were used with a customized Teflon cap to accommodate a three electrode configuration along with gas fittings to maintain a moist anaerobic atmosphere. Carbon felt working electrodes (1×1×0.318 cm) (VWR, Singapore) were kept for 24 h in 1 M HCl and stored in deionized (DI) water before use. The electrodes were connected to titanium wire (0.25 mmØ, Sigma-Aldrich) using a nylon nut and bolt. A coiled titanium wire was used as counter electrode and an Ag/AgCl reference electrode (78 mm, 6 mm Outer Ø, Biologic, France) was connected using a 1 M KCl in 1.5% agar salt bridge. The assembled cell was then filled with 1 M KCl solution ending in a 4 mm glass frit (CoralPor™, Biologic, France). The entire assembly was then autoclaved (121° C. for 15 min). Nine mL of degassed modified M9 medium was added to the ECs and supplemented with a reporter to a final concentration of 5.0×10^−5 M in 10 mL working volume. […]
(§4) Following reporter supplement and inoculation with the test microorganism, the ECs were connected to a multichannel potentiostat (Biologic, France) and cyclic voltammetry (CV) and differential pulse voltammetry (DPV) were performed immediately. Data acquisition was recorded by EC-Lab software (Biologic, France). […] A detection event was calculated as 4 times the standard deviation of the baseline and detection times are expressed as the mean of triplicate analyses unless stated otherwise. […]

E. coli [2] = assay: Current from unconjugated redox active reporter moieties with E. coli in self-powering bioelectrochemical systems (BES, microbial fuel cells); assay type: cell-based, Escherichia coli; conditions: 1 kΩ load, ambient temperature
Experimental: as §1, with “5° C. […]” for “5° C.”
Dual chamber U-tube BESs, in the form of microbial fuel cells (MFCs), were constructed with two 90° 28/15 ball-to-plain-end and socket-to-plain-end glass quick fit elbows (17 mm O.D.×1.8 mm wall thickness) (VWR, Singapore) to form the anode and cathode chambers (Sund et al., Appl. Microbiol. Biotechnol. 2007; 76:561-568.). […] A 1 kΩ load was applied across the circuit and potential difference was recorded using an eDAQ e-corder® data acquisition system (ED 1621-16 channel recorder) equipped with Chart™ software (Bronjo Medi, Singapore) at a rate of 1 data point every 5 min. […]
Naphthoquinones are cheap redox active molecules which are compatible with E. coli and can be readily conjugated to pyranose rings (Rau et al. Environ. Sci. Technol. 2002; 36:1497-1504; Park and Zeikus. Appl. Environ. Microbiol. 2000; 66:1292-1297). […]

[3] = test system: Escherichia coli strain BL21; assay: Chronoamperometric detection of E. coli with electrochemically active reporters in three-electrode electrochemical systems (ECs); assay type: cell-based; conditions: for Detection time (±std dev): chronoamperometry in ECs, reporter 50 μM; for Detection time for E. coli: inoculum sizes between 5×10^5-5×10^3, ECs (Table 1)
Experimental: as §1, §2, §3
Conical ECs with a working volume of 10 mL were used with a customized Teflon cap to accommodate a three electrode configuration along with gas fittings to maintain a moist anaerobic atmosphere. Carbon felt working electrodes (1×1×0.318 cm) (VWR, Singapore) were kept for 24 h in 1 M HCl and stored in deionized (DI) water before use. The electrodes were connected to titanium wire (0.25 mmØ, Sigma-Aldrich) using a nylon nut and bolt. A coiled titanium wire was used as counter electrode and an Ag/AgCl reference electrode (78 mm, 6 mm Outer Ø, Biologic, France) was connected using a 1 M KCl in 1.5% agar salt bridge. The assembled cell was then filled with 1 M KCl solution ending in a 4 mm glass frit (CoralPor™, Biologic, France). The entire assembly was then autoclaved (121° C. for 15 min). Nine mL of degassed modified M9 medium was added to the ECs and supplemented with a reporter to a final concentration of 5.0×10^−5 M in 10 mL working volume. The ECs were then inoculated with the targeted test organism to achieve a final working volume of 10 mL. The headspace was flushed continuously with sterile humidified N2. The ECs were operated at 30° C., 37° C. or 44.5° C. Stirring was maintained continuously with a magnetic stirrer in the dark to prevent photo-bleaching of the light sensitive mediators.
Following reporter supplement and inoculation with the test microorganism, the ECs were connected to a multichannel potentiostat (Biologic, France) and cyclic voltammetry (CV) and differential pulse voltammetry (DPV) were performed immediately. Data acquisition was recorded by EC-Lab software (Biologic, France). Chronoamperometry (CA) was applied for up to 24 h to detect redox active reporter moieties. A detection event was calculated as 4 times the standard deviation of the baseline and detection times are expressed as the mean of triplicate analyses unless stated otherwise. […]

[4] = test system: mixed culture of E. coli and A. hydrophila; assay: Detection time of mixed culture of A. hydrophila and E. coli in ECs; assay type: cell-based, Escherichia coli; Aeromonas hydrophila; conditions: 44.5° C.; E. coli constant 5×10^5 CFU mL^−1; A. hydrophila from 5×10^2-5×10^5 CFU mL^−1 (FIG. 6)
Experimental: as §2, §3
Conical ECs with a working volume of 10 mL were used with a customized Teflon cap to accommodate a three electrode configuration along with gas fittings to maintain a moist anaerobic atmosphere. Carbon felt working electrodes (1×1×0.318 cm) (VWR, Singapore) were kept for 24 h in 1 M HCl and stored in deionized (DI) water before use. The electrodes were connected to titanium wire (0.25 mmØ, Sigma-Aldrich) using a nylon nut and bolt. A coiled titanium wire was used as counter electrode and an Ag/AgCl reference electrode (78 mm, 6 mm Outer Ø, Biologic, France) was connected using a 1 M KCl in 1.5% agar salt bridge. […]
as §4

Escherichia coli = assay: Suitability of colorimetric detection compounds for bioelectrochemical detection of Escherichia coli; assay type: cell-based; conditions: compound used for colorimetric detection of Escherichia coli
From the text: Bioelectroanalytical techniques are emerging as ways to enumerate and scrutinize microbial systems. But there is still need in the art for technologies specifically designed for bioelectroanalytical detection of FIB. […] The latter, in particular, makes them unsuitable in self-powering systems.

E. coli [5] = conditions: Perez et al., cited from earlier work
[6] = 37° C., inoculum 5 × 10^2 CFU mL^−1
[7] = 37° C., inoculum 5 × 10^3 CFU mL^−1
[8] = 37° C., inoculum 5 × 10^4 CFU mL^−1
[9] = 37° C., inoculum 5 × 10^5 CFU mL^−1

Row | SMILES | Maximum recorded current in ECs (E. coli [1]) [μA] | Current observed in BES (E. coli [2]) [μA] | Detection time (±std dev) [3, 6] | Detection time (±std dev) [3, 7] | Detection time (±std dev) [3, 8] | Detection time (±std dev) [3, 9] | Suitability for bioelectrochemical detection (Escherichia coli) | further results
1 | O=C1C=C(O)C(=O)c2ccccc21 [2H14NQ, 2-hydroxy-1,4-naphthoquinone] | ~100 | 40 | – | – | – | – | – | Maximum current relative to that achieved with 5H14NQ (E. coli [1]; ECs): ~14 times; Maximum current relative to that observed with 58H14NQ (E. coli [1]; ECs): ~25 times
2 | O=C1C=C(O[C@@H]2O[C@H](CO)[C@H](O)[C@H](O)[C@H]2O)C(=O)c2ccccc21 [2H14NQGal, 2-hydroxy-1,4-naphthoquinone-β-d-galactopyranoside] | – | – | 413(±14) minutes | 359(±13) minutes | 143(±17) minutes | 113(±13) minutes | – | Detection time ([3]; inoculum equivalent to 5×10^3 CFU mL^−1 of Perez et al., n=3): 6.87 h
3 | O=C1C=C(O[C@@H]2O[C@H](CO)[C@@H](O)[C@H](O)[C@H]2O)C(=O)c2ccccc21 [2H14NQGlu, 2-hydroxy-1,4-naphthoquinone-β-d-glucopyranoside] | – | – | 339(±41) minutes | 187(±31) minutes | 142(±11) minutes | 120(±21) minutes | – | Detection time (±std dev) ([3]; 30° C., inoculum 5 × 10^2 CFU mL^−1): 832* minutes; Detection time (±std dev) ([3]; 30° C., inoculum 5 × 10^3 CFU mL^−1): 574* minutes; Detection time (±std dev) ([3]; 30° C., inoculum 5 × 10^5 CFU mL^−1): 168* minutes; Detection time ([3]; 44.5° C., 10 organism, FIG. 7): 19 h; Detection time ([3]; 44.5° C., 500 organisms, FIG. 7): 12.5 h; Detection time ([3]; 44.5° C., 5000 organisms, FIG. 7): ~9 h; Detection time ([3]; 44.5° C., "CFU mL^−1 of E. coli" (number not given), FIG. 7): ~19 h; Detection time ([3]; 44.5° C., inoculum size 500 CFU mL^−1, FIG. 7): less than 10 h; Detection time for E. coli [3]: 120 to 188 min; Detection time, mixed culture [4]: 125 to 172 min
4 | Nc1ccc(O[C@@H]2O[C@H](CO)[C@H](O)[C@H](O)[C@H]2O)cc1 [4-APgal, 4-aminophenyl-β-d-galactopyranoside] | – | – | – | – | – | – | not well suited for bioelectrochemical detection | Detection time (E. coli [5]; 1 CFU mL^−1 (laboratory sample)): 10 h; Detection time (E. coli [5]; 4.5 CFU mL^−1 (marine sample)): 7.3 h
5 | O=C(O)[C@H]1O[C@@H](Oc2ccc([N+](=O)[O-])cc2)[C@H](O)[C@@H](O)[C@@H]1O [4-NPglu, 4-nitrophenol-β-d-glucuronidase] | – | – | – | – | – | – | not well suited for bioelectrochemical detection | –
6 | O=C1C=CC(=O)c2c(O)cccc21 [5H14NQ, 5-hydroxy-1,4-naphthoquinone] | ~7 | 6 | – | – | – | – | – | –
7 | O=C(O)[C@H]1O[C@@H](Oc2cccc3cccnc23)[C@H](O)[C@@H](O)[C@@H]1O [8-hydroxyquinoline glucuronide] | – | – | – | – | – | – | not well suited for bioelectrochemical detection | –
8 | O=C1C=CC(=O)c2c(O)ccc(O)c21 [58H14NQ, 5,8-dihydroxy-1,4-naphthoquinone] | ~4 | 2.5 | – | – | – | – | – | –
9 | O=c1ccc2nc3ccc(O[C@@H]4O[C@H](CO)[C@@H](O)[C@H](O)[C@H]4O)cc3oc-2c1 [ResGlu, resorufin-β-d-glucopyranoside] | – | – | 431(±29) minutes | 397(±52) minutes | 309(±33) minutes | 259(±19) minutes | – | Detection time ([3]; inoculum size 5×10^3 CFU mL^−1, ECs): 6.6 h; Detection time for E. coli [3]: 258 to 397 min
